Where two headings read alike, the source gives them in different places.
What was measured:
[1] = test system: diamondback moth (Plutella xylostella) second instar larvae; assay: Toxicity to diamondback moth larvae by the leaf-dipping method; assay type: in vivo; conditions: for mortality at 0.25 ppm / mortality at 1 ppm: Plutella xylostella, in Brassica oleracea, foliar, corrected mortality grade, cabbage leaf dip
Method: Determining the toxicity activity of part of compounds on diamondback moth (Plutella xylostella) instar larvae by the leafdipping method.
The test agents of the compounds in Table 2 were weighed out accurately with an electronic analytical balance, and the original drug was dissolved in a 10000 ppm solution with dimethyl sulfoxide as the solvent and then diluted with 0.1% of Triton solution to 1 ppm and 0.25 ppm solutions. Taking the cabbage not contacted with the liquid medicine, and cutting the leaves into 6 cm-diameter circular leaves. Soaking the leaves in the prepared liquid medicine for 15 seconds, taking out and drying, and placing the leaves into 6 cm culture dishes, wherein 1 cabbage leaf is placed in each culture dish. The same standard second instar larvae were placed in petri dishes with 10 heads per dish and 4 replicates per concentration for a total of 40 heads. After inoculation, the culture dish is placed in a constant-temperature culture chamber with the temperature of 25±1° C. and the illumination period of 16 (D) to 8 (L) h, and the number of dead and live larvae is investigated after 48 h and 72 h. A blank and a control of compound K1 and compound K2 were also provided.
The mortality is calculated according to the following formula 1, then the corrected mortality is calculated according to the formula 2, and finally the classification is carried out according to the corrected mortality value and the rating standard shown in the table 2, and the specific results are shown in the tables 3 and 4.
(§1) mortality %=(number of dead insects/total number of insects)×100% Equation 1;
(§2) corrected mortality %=[(treatment-control mortality)/(1-control mortality)]×100% Equation 2.

[2] = test system: rice leaf rollers (Cnaphalocrocis medinalis) fourth instar larvae; assay: Toxicity to rice leaf roller fourth instar larvae by the leaf-dipping method; assay type: in vivo; conditions: for mortality at 5 ppm: Cnaphalocrocis medinalis, foliar, corrected mortality grade, 48 h, rice leaf dip
Method: The toxicity activity of part of the compounds on the fourth instar larvae of the rice leaf rollers (Cnaphalocrocis medinalis) is determined by the leafdipping method.
The test agents of the compounds in Table 2 were weighed out accurately with an electronic analytical balance, and the original drug was dissolved completely in dimethylsulfoxide to 10000 ppm solution and then diluted with 0.1% aqueous solution of Triton to 5 ppm solution. And (4) selecting rice plants which are planted in a laboratory and are not contacted with the liquid medicine, and cutting leaves of the rice plants to about 8 cm. Soaking the leaves in the prepared liquid medicine for 15 seconds, taking out and drying, wrapping the roots with absorbent cotton, and putting the wrapped roots into 9 cm culture dishes, wherein 3-5 rice leaves are placed in each culture dish. The water bamboo sections used as the feed for larvae are peeled off gently, and the four-instar larvae of the same standard are placed in culture dishes with 10 heads per dish and 4 repetitions per concentration for a total of 40 heads. After the inoculation, the culture dish is placed in a constant temperature culture room with the temperature of 26±1° C. and the illumination period of 16 (D): 8 (L) h, and the number of dead and live larvae is investigated after 48 h. A blank and a control of compound K1 and compound K2 were also provided.
The mortality was calculated according to the following formula 1, then the corrected mortality was calculated according to the following formula 2, and finally the rating criteria shown in table 2 were combined for ranking according to the corrected mortality value, and the specific results are shown in table 5.
as §1, §2

[3] = 48 h, 48 h, read-out: mortality (1 ppm) 48 h
[4] = 72 h, 72 h, read-out: mortality (1 ppm) 72 h

Compound | mortality at 1 ppm [1, 3] | mortality at 1 ppm [1, 4] | other results
Cc1cc(C2=NOC(c3cc(Cl)c(F)c(Cl)c3)(C(F)(F)F)C2)ccc1C(=O)Nc1cnn(C(C)C)c1 (centres unmarked) [Compound 127] | 100% | 100% | mortality at 0.25 ppm ([1]; 48 h): 100%; lethality to Plutella xylostella ([1]; concentration of 0.25 ppm): 100%; mortality at 5 ppm [2]: 100%; lethality to Cnaphalocrocis medinalis ([2]; concentration of 5 ppm): 100%
COc1cccc(-n2cc(NC(=O)c3ccc(C4=NOC(c5cc(Cl)cc(Cl)c5)(C(F)(F)F)C4)cc3C)cn2)c1 (centres unmarked) [Compound 51] | – | 50 to 70% | –
C=CCn1cc(NC(=O)c2ccc(C3=NOC(c4cc(Cl)cc(Cl)c4)(C(F)(F)F)C3)cc2C)cn1 (centres unmarked) [Compound 27] | 50 to 70% | 70 to 80% | –
CCCn1nc(C)c(NC(=O)c2ccc(C3=NOC(c4cc(Cl)cc(Cl)c4)(C(F)(F)F)C3)cc2C)c1C (centres unmarked) [Compound 98] | – | 50 to 70% | –
Cc1cc(C2=NOC(c3cc(Cl)cc(Cl)c3)(C(F)(F)F)C2)ccc1C(=O)Nc1ccn(C)n1 (centres unmarked) [Compound K1, reference compound] | < 50% | < 50% | mortality at 0.25 ppm ([1]; 48 h): < 50%; mortality at 5 ppm [2]: < 50%
CCC(C)n1cc(NC(=O)c2ccc(C3=NOC(c4cc(Cl)cc(Cl)c4)(C(F)(F)F)C3)cc2C)cn1 (centres unmarked) [Compound 16] | – | 70 to 80% | –
Cc1cc(C2=NOC(c3cc(Cl)cc(Cl)c3)(C(F)(F)F)C2)ccc1C(=O)Nc1cnn(C2CCC2)c1 (centres unmarked) [Compound 24] | – | 50 to 70% | –
Cc1cc(C2=NOC(c3cc(Cl)cc(Cl)c3)(C(F)(F)F)C2)ccc1C(=O)Nc1cnn(CCF)c1 (centres unmarked) [Compound 9] | – | 80 to 90% | –
Cc1cc(C2=NOC(c3cc(Cl)cc(Cl)c3)(C(F)(F)F)C2)ccc1C(=O)Nc1cnn(S(=O)(=O)c2ccccc2)c1 (centres unmarked) [Compound 73] | – | 50 to 70% | –
Cc1cc(C2=NOC(c3cc(Cl)cc(Cl)c3)(C(F)(F)F)C2)ccc1C(=O)Nc1cnn(C(=O)C2CCC2)c1 (centres unmarked) [Compound 64] | – | 50 to 70% | –
CCN(CC)C(=O)n1cc(NC(=O)c2ccc(C3=NOC(c4cc(Cl)c(F)c(Cl)c4)(C(F)(F)F)C3)cc2C)cn1 (centres unmarked) [Compound 150] | 80 to 90% | 100% | –
Cc1cc(C2=NOC(c3cc(Cl)c(F)c(Cl)c3)(C(F)(F)F)C2)ccc1C(=O)Nc1cnn(C2CC2)c1 (centres unmarked) [Compound 129] | 100% | 100% | –
CCN(CC)C(=O)n1cc(NC(=O)c2ccc(C3=NOC(c4cc(Cl)cc(Cl)c4)(C(F)(F)F)C3)cc2C)cn1 (centres unmarked) [Compound 68] | – | 50 to 70% | –
COCn1cc(NC(=O)c2ccc(C3=NOC(c4cc(Cl)cc(Cl)c4)(C(F)(F)F)C3)cc2C)cn1 (centres unmarked) [Compound 12] | 50 to 70% | 50 to 70% | –
C#CCn1cc(NC(=O)c2ccc(C3=NOC(c4cc(Cl)cc(Cl)c4)(C(F)(F)F)C3)cc2C)cn1 (centres unmarked) [Compound 28] | 80 to 90% | 100% | –
Cc1cc(C2=NOC(c3cc(Cl)c(F)c(Cl)c3)(C(F)(F)F)C2)ccc1C(=O)Nc1c(C)nn(C(=O)C(C)C)c1C (centres unmarked) [Compound 171] | – | 80 to 90% | –
CC(=O)n1cc(NC(=O)c2ccc(C3=NOC(c4cc(Cl)cc(Cl)c4)(C(F)(F)F)C3)cc2C)cn1 (centres unmarked) [Compound 58] | – | 50 to 70% | –
Cc1cc(C2=NOC(c3cc(Cl)c(F)c(Cl)c3)(C(F)(F)F)C2)ccc1C(=O)Nc1cnn(S(=O)(=O)c2ccccc2)c1 (centres unmarked) [Compound 155] | – | 50 to 70% | –
Cc1cc(C2=NOC(c3cc(Cl)cc(Cl)c3)(C(F)(F)F)C2)ccc1C(=O)Nc1cnn(CCC(F)(F)F)c1 (centres unmarked) [Compound 10] | 50 to 70% | 100% | –
Cc1cc(C2=NOC(c3cc(Cl)c(F)c(Cl)c3)(C(F)(F)F)C2)ccc1C(=O)Nc1c(C)nn(C(=O)N(C)C)c1C (centres unmarked) [Compound 177] | – | 80 to 90% | –
COC(Cn1cc(NC(=O)c2ccc(C3=NOC(c4cc(Cl)cc(Cl)c4)(C(F)(F)F)C3)cc2C)cn1)OC (centres unmarked) [Compound 36] | – | 50 to 70% | –
Cc1cc(C2=NOC(c3cc(Cl)c(F)c(Cl)c3)(C(F)(F)F)C2)ccc1C(=O)Nc1c(C)nn(C(=O)C2CCC2)c1C (centres unmarked) [Compound 174] | – | 70 to 80% | –
Cc1cc(C2=NOC(c3cc(Cl)cc(Cl)c3)(C(F)(F)F)C2)ccc1C(=O)Nc1cnn(C)c1 (centres unmarked) [Compound 2] | 80 to 90% | 100% | –
CCCS(=O)(=O)n1cc(NC(=O)c2ccc(C3=NOC(c4cc(Cl)cc(Cl)c4)(C(F)(F)F)C3)cc2C)cn1 (centres unmarked) [Compound 71] | – | 70 to 80% | –
Cc1cc(C2=NOC(c3cc(Cl)cc(Cl)c3)(C(F)(F)F)C2)ccc1C(=O)Nc1cnn(C(=O)N(C)C)c1 (centres unmarked) [Compound 67] | – | 90 to 100% | –
Cc1cc(C2=NOC(c3cc(Cl)cc(Cl)c3)(C(F)(F)F)C2)ccc1C(=O)Nc1cnn(C2CCOCC2)c1 (centres unmarked) [Compound 40] | 50 to 70% | 50 to 70% | –
Cc1cc(C2=NOC(c3cc(Cl)c(F)c(Cl)c3)(C(F)(F)F)C2)ccc1C(=O)Nc1cnn(C2CCC2)c1 (centres unmarked) [Compound 130] | 90 to 100% | 100% | –
